Laboratory results published in patent US7268161B2, “Comprehensive pharmacologic therapy for treatment of obesity including cysteine” (priority 1999, dated 2007).

Experiments:
[1] = test system: tachyphylaxis; test: Cysteine therapy in patients with tachyphylaxis from drugs that increase synaptic norepinephrine; type: in vivo; details: patients on drugs which cause increased levels of norepinephrine in the synapse
Description: The core of Tyrosine Hydroxylase is a “heme-thiolate” protein (see FIG. 1). The “heme-thiolate” protein is composed of iron in the form of a cytochrome P-450 complex and Cysteine. Patients experiencing tachyphylaxis from drugs which cause increased levels of norepinephrine in the synapse, generally have serum iron levels which are normal.

[2] = test system: norepinephrine; details: drugs used in treatment of a patient for weight loss; cited from earlier work

N[C@@H](CS)C(=O)O [Cysteine]
reversal of tachyphylaxis [1]: effective in reversing the tachyphylaxis

CC(C)(N)Cc1ccccc1 [Phentermine]
increase of intersynaptic levels of norepinephrine [2]: ≥ 2,500 times
